Laboratory results taken from paper PMC6891286, “Towards the Development of an In vivo Chemical Probe for Cyclin G Associated Kinase (GAK)” (Molecules, 2019).

Experiments:
Assay in all cases: KINOMEscan
Format in all cases: binding
Settings in all cases: 35 at 1 µM; read-out: % inhibition
[1] = biological target: T1, ABL1(Q252H)-phosphorylated (Homo sapiens, UniProt P00519, Q252H)
T1 construct: purchased Eurofins DiscoverX (KINOMEscan)
Method: (§1) KinomeScan Assay on 35 was performed as previously described at EuroFins DiscoverX (Fremont, CA, USA).

ACVR1 = biological target: T2, ACVR1 (Homo sapiens, UniProt Q04771)
T2 construct: purchased Eurofins DiscoverX (KINOMEscan)
Method: as §1

CASK = biological target: T3, CASK (Homo sapiens, UniProt O14936)
T3 construct: purchased Eurofins DiscoverX (KINOMEscan)
Method: as §1

CDK5 = biological target: T4, CDK5 (Homo sapiens, UniProt Q00535)
T4 construct: purchased Eurofins DiscoverX (KINOMEscan)
Method: as §1

CSNK1E = biological target: T5, CSNK1E (Homo sapiens, UniProt P49674)
T5 construct: purchased Eurofins DiscoverX (KINOMEscan)
Method: as §1

CTK = biological target: T6, CTK (Homo sapiens, UniProt P42679)
T6 construct: purchased Eurofins DiscoverX (KINOMEscan)
Method: as §1

DMPK2 = biological target: T7, DMPK2 (Homo sapiens, UniProt Q6DT37)
T7 construct: purchased Eurofins DiscoverX (KINOMEscan)
Method: as §1

DRAK1 = biological target: T8, DRAK1 (Homo sapiens, UniProt Q9UEE5)
T8 construct: purchased Eurofins DiscoverX (KINOMEscan)
Method: as §1

EPHA5 = biological target: T9, EPHA5 (Homo sapiens, UniProt P54756)
T9 construct: purchased Eurofins DiscoverX (KINOMEscan)
Method: as §1

EPHB4 = biological target: T10, EPHB4 (Homo sapiens, UniProt P54760)
T10 construct: purchased Eurofins DiscoverX (KINOMEscan)
Method: as §1

ERBB3 = biological target: T11, ERBB3 (Homo sapiens, UniProt P21860)
T11 construct: purchased Eurofins DiscoverX (KINOMEscan)
Method: as §1

FLT3 = biological target: T12, FLT3 (Homo sapiens, UniProt P36888)
T12 construct: purchased Eurofins DiscoverX (KINOMEscan)
Method: as §1

FLT3(D835H) = biological target: T13, FLT3(D835H) (Homo sapiens, UniProt P36888, D835H)
T13 construct: purchased Eurofins DiscoverX (KINOMEscan)
Method: as §1

[2] = biological target: T14, JAK3(JH1domain-catalytic) (Homo sapiens, UniProt P52333)
T14 construct: JAK3(JH1domain-catalytic); purchased Eurofins DiscoverX (KINOMEscan)
Method: as §1

KIT(A829P) = biological target: T15, KIT(A829P) (Homo sapiens, UniProt P10721, A829P)
T15 construct: purchased Eurofins DiscoverX (KINOMEscan)
Method: as §1

KIT(D816V) = biological target: T16, KIT(D816V) (Homo sapiens, UniProt P10721, D816V)
T16 construct: purchased Eurofins DiscoverX (KINOMEscan)
Method: as §1

KIT(V559D,T670I) = biological target: T17, KIT(V559D,T670I) (Homo sapiens, UniProt P10721, T670I/V559D)
T17 construct: purchased Eurofins DiscoverX (KINOMEscan)
Method: as §1

LATS1 = biological target: T18, LATS1 (Homo sapiens, UniProt O95835)
T18 construct: purchased Eurofins DiscoverX (KINOMEscan)
Method: as §1

LZK = biological target: T19, LZK (Homo sapiens, UniProt O43283)
T19 construct: purchased Eurofins DiscoverX (KINOMEscan)
Method: as §1

MAP3K2 = biological target: T20, MAP3K2 (Homo sapiens, UniProt Q9Y2U5)
T20 construct: purchased Eurofins DiscoverX (KINOMEscan)
Method: as §1

MAP3K4 = biological target: T21, MAP3K4 (Homo sapiens, UniProt Q9Y6R4)
T21 construct: purchased Eurofins DiscoverX (KINOMEscan)
Method: as §1

MAPKAPK5 = biological target: T22, MAPKAPK5 (Homo sapiens, UniProt Q8IW41)
T22 construct: purchased Eurofins DiscoverX (KINOMEscan)
Method: as §1

MAST1 = biological target: T23, MAST1 (Homo sapiens, UniProt Q9Y2H9)
T23 construct: purchased Eurofins DiscoverX (KINOMEscan)
Method: as §1

MEK4 = biological target: T24, MEK4 (Homo sapiens, UniProt P45985)
T24 construct: purchased Eurofins DiscoverX (KINOMEscan)
Method: as §1

MERTK = biological target: T25, MERTK (Homo sapiens, UniProt Q12866)
T25 construct: purchased Eurofins DiscoverX (KINOMEscan)
Method: as §1

MINK = biological target: T26, MINK (Homo sapiens, UniProt Q8N4C8)
T26 construct: purchased Eurofins DiscoverX (KINOMEscan)
Method: as §1

MLK3 = biological target: T27, MLK3 (Homo sapiens, UniProt Q16584)
T27 construct: purchased Eurofins DiscoverX (KINOMEscan)
Method: as §1

MST1 = biological target: T28, MST1 (Homo sapiens, UniProt Q13043)
T28 construct: purchased Eurofins DiscoverX (KINOMEscan)
Method: as §1

NEK11 = biological target: T29, NEK11 (Homo sapiens, UniProt Q8NG66)
T29 construct: purchased Eurofins DiscoverX (KINOMEscan)
Method: as §1

NEK5 = biological target: T30, NEK5 (Homo sapiens, UniProt Q6P3R8)
T30 construct: purchased Eurofins DiscoverX (KINOMEscan)
Method: as §1

NIM1 = biological target: T31, NIM1 (Homo sapiens, UniProt Q8IY84)
T31 construct: purchased Eurofins DiscoverX (KINOMEscan)
Method: as §1

PCTK3 = biological target: T32, PCTK3 (Homo sapiens, UniProt Q07002)
T32 construct: purchased Eurofins DiscoverX (KINOMEscan)
Method: as §1

PIK3CA(H1047L) = biological target: T33, PIK3CA(H1047L) (Homo sapiens, UniProt P42336, H1047L)
T33 construct: purchased Eurofins DiscoverX (KINOMEscan)
Method: as §1

PIM1 = biological target: T34, PIM1 (Homo sapiens, UniProt P11309)
T34 construct: purchased Eurofins DiscoverX (KINOMEscan)
Method: as §1

PKNB(M.tuberculosis) = biological target: T35, PKNB(M.tuberculosis) (Mycobacterium tuberculosis, UniProt P9WI81)
T35 construct: purchased Eurofins DiscoverX (KINOMEscan)
Method: as §1

PRKCQ = biological target: T36, PRKCQ (Homo sapiens, UniProt Q04759)
T36 construct: purchased Eurofins DiscoverX (KINOMEscan)
Method: as §1

[3] = biological target: T37, RPS6KA4(Kin.Dom.2-C-terminal) (Homo sapiens, UniProt O75676)
T37 construct: RPS6KA4(Kin.Dom.2-C-terminal); purchased Eurofins DiscoverX (KINOMEscan)
Method: as §1

[4] = biological target: T38, RSK3(Kin.Dom.2-C-terminal) (Homo sapiens, UniProt Q15349)
T38 construct: RSK3(Kin.Dom.2-C-terminal); purchased Eurofins DiscoverX (KINOMEscan)
Method: as §1

SNARK = biological target: T39, SNARK (Homo sapiens, UniProt Q9H093)
T39 construct: purchased Eurofins DiscoverX (KINOMEscan)
Method: as §1

TSSK1B = biological target: T40, TSSK1B (Homo sapiens, UniProt Q9BXA7)
T40 construct: purchased Eurofins DiscoverX (KINOMEscan)
Method: as §1

ULK2 = biological target: T41, ULK2 (Homo sapiens, UniProt Q8IYT8)
T41 construct: purchased Eurofins DiscoverX (KINOMEscan)
Method: as §1

T30 sequence (Q6P3R8 whole entry): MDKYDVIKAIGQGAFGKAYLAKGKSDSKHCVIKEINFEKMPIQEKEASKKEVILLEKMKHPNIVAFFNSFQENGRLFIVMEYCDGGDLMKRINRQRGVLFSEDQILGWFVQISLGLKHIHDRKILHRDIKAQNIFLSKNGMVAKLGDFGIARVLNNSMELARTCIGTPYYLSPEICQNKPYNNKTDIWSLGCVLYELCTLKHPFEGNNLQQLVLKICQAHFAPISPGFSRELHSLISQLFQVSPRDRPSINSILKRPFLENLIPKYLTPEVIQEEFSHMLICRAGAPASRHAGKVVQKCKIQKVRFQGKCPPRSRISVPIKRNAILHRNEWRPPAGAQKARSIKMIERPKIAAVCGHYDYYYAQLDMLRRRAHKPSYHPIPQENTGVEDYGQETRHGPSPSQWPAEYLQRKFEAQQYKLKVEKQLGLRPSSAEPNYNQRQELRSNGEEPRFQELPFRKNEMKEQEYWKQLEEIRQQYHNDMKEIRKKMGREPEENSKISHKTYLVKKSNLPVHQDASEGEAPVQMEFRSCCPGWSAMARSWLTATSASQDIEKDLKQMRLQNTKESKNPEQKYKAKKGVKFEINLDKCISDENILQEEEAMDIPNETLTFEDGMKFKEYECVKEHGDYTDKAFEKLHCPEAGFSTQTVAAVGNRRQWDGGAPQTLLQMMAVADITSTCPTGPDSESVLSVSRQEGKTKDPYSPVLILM
T15 sequence (P10721 26-976 A829P): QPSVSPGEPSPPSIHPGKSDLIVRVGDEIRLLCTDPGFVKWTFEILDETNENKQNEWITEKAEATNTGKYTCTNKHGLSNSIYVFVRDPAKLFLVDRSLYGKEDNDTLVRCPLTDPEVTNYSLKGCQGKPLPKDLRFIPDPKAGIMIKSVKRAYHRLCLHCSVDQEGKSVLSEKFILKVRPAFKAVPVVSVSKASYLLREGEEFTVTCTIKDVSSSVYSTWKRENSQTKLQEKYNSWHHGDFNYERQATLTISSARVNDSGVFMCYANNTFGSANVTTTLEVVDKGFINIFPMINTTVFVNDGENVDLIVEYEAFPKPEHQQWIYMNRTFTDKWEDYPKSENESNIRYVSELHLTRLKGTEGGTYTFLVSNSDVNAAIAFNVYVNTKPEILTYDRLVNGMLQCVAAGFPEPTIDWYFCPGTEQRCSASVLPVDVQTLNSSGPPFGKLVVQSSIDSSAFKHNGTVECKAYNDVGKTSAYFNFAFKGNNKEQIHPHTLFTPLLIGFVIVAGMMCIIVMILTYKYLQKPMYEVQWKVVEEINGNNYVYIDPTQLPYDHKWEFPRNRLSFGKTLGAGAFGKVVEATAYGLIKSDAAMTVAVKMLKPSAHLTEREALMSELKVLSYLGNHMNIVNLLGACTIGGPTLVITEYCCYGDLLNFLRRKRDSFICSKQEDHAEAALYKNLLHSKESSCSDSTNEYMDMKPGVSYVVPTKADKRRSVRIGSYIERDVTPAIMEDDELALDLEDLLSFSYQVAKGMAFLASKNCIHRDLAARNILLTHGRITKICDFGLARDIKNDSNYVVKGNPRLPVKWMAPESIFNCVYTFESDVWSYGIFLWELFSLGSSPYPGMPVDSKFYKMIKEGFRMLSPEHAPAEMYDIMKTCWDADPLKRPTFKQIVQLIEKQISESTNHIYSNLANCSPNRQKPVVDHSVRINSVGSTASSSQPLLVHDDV
T4 sequence (Q00535 whole entry): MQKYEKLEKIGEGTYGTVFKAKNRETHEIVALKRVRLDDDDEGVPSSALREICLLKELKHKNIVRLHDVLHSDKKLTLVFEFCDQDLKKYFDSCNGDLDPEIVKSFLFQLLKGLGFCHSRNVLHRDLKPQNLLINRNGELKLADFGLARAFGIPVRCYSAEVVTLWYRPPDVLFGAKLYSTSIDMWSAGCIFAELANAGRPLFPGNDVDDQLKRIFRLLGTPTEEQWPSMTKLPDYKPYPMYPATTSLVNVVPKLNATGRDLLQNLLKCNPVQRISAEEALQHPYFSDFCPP
T38 sequence (Q15349 389-733 limits assumed): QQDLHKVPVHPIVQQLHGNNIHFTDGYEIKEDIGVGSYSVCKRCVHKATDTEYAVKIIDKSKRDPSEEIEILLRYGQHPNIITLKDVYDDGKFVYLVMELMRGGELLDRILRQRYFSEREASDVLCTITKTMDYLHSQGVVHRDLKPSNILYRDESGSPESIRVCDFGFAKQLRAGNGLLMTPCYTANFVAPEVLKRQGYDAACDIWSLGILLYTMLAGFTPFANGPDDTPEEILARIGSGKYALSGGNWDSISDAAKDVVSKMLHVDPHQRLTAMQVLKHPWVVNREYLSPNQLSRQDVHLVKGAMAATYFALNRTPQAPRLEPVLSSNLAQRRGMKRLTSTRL
T3 sequence (O14936 whole entry): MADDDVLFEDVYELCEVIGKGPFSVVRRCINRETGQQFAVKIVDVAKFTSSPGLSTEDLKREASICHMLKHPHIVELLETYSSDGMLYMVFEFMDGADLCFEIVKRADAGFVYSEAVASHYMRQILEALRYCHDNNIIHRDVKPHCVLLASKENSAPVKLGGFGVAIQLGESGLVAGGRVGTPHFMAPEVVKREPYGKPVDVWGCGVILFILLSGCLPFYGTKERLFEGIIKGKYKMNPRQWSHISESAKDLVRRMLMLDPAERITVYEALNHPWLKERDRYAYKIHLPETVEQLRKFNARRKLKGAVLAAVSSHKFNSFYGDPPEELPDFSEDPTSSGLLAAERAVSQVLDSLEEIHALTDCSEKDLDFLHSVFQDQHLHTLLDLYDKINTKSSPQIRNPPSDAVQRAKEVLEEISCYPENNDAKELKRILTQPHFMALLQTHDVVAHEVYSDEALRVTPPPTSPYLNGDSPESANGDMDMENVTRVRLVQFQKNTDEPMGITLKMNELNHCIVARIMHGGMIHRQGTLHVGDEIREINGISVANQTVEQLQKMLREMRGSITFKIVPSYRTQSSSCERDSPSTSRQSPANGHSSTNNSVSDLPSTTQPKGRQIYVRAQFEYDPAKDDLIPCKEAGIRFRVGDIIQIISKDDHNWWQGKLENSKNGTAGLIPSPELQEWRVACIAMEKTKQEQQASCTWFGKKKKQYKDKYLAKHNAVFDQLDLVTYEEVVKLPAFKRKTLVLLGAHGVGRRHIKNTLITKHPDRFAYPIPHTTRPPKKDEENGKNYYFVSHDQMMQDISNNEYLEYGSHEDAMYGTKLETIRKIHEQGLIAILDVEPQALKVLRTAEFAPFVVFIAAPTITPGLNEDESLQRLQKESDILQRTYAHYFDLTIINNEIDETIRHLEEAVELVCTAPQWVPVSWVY
T17 sequence (P10721 26-976 V559D/T670I): as the sequence (P10721 26-976 A829P) above, with V534D, T645I, P804A counted along it
T29 sequence (Q8NG66 whole entry): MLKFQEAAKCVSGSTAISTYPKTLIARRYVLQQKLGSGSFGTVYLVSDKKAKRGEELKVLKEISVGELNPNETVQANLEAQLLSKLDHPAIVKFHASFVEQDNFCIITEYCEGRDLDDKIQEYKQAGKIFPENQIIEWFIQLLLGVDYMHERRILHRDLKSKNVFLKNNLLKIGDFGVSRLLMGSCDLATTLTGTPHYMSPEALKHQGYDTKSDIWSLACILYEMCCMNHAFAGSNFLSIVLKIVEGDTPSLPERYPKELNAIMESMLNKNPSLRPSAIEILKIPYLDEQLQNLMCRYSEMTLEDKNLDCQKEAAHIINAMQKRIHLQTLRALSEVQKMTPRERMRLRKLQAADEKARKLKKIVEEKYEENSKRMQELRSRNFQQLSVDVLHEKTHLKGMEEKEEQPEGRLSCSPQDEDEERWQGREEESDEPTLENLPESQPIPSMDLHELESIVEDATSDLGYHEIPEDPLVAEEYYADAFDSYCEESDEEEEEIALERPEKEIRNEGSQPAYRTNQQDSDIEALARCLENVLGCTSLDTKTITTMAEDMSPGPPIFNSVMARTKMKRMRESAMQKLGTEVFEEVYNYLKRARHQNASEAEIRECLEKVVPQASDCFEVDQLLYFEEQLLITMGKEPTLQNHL
T18 sequence (O95835 whole entry): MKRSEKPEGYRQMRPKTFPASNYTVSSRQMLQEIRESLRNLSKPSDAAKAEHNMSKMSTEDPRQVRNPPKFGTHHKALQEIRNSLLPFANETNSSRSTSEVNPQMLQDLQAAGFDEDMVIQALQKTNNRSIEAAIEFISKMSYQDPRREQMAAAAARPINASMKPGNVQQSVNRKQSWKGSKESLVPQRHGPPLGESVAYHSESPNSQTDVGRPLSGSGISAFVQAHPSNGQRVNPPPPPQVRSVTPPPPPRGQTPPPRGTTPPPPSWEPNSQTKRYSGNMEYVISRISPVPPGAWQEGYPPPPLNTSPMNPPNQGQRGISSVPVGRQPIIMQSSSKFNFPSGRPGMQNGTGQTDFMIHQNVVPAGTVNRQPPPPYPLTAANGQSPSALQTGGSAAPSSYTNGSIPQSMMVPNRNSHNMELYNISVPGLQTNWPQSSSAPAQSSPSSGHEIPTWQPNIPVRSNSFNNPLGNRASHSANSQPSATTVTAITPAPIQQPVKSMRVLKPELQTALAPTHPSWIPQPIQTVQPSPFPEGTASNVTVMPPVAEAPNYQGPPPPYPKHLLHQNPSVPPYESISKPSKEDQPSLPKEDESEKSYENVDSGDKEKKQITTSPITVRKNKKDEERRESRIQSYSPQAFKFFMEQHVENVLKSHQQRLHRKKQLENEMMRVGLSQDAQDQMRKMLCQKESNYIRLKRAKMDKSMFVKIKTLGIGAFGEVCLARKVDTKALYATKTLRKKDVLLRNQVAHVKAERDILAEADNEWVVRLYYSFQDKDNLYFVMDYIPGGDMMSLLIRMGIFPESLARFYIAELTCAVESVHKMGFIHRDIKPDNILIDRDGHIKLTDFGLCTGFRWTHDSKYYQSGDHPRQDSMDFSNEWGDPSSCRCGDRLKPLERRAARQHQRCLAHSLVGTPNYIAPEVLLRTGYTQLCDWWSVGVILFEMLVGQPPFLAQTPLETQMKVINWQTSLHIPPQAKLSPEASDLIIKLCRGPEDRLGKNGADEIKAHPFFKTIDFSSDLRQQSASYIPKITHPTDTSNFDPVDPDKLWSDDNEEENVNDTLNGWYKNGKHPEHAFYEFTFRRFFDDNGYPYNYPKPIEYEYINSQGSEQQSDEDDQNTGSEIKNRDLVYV

For Brc1ccc2nccc(Nc3ccc4cn[nH]c4c3)c2c1 [Compound 35, 6-Bromo-N-(1H-indazol-6-yl)quinolin-4-amine], the activity at 1 µM [1] was 100%, the activity at 1 µM (ACVR1) was 97% and the activity at 1 µM (CASK) was 68%. It also gave an activity at 1 µM (CDK5) of 100%, an activity at 1 µM (CSNK1E) of 100% and an activity at 1 µM (CTK) of 93%. For the same compound, the activity at 1 µM (DMPK2) was 73%, the activity at 1 µM (DRAK1) was 100% and the activity at 1 µM (EPHA5) was 100%. The activity at 1 µM (EPHB4) was 100%, the activity at 1 µM (ERBB3) was 100% and the activity at 1 µM (FLT3) was 100%. For the same compound, the activity at 1 µM (FLT3(D835H)) was 94%, the activity at 1 µM [2] was 83% and the activity at 1 µM (KIT(A829P)) was 100%. The activity at 1 µM (KIT(D816V)) was 100%, the activity at 1 µM (KIT(V559D,T670I)) was 100% and the activity at 1 µM (LATS1) was 100%. The activity at 1 µM (LZK) was 100%, the activity at 1 µM (MAP3K2) was 100% and the activity at 1 µM (MAP3K4) was 100%. It also gave an activity at 1 µM (MAPKAPK5) of 100%, an activity at 1 µM (MAST1) of 100% and an activity at 1 µM (MEK4) of 100%. The activity at 1 µM (MERTK) was 85%, the activity at 1 µM (MINK) was 100% and the activity at 1 µM (MLK3) was 100%. It also gave an activity at 1 µM (MST1) of 100%, an activity at 1 µM (NEK11) of 100% and an activity at 1 µM (NEK5) of 93%. It also gave an activity at 1 µM (NIM1) of 88%, an activity at 1 µM (PCTK3) of 100% and an activity at 1 µM (PIK3CA(H1047L)) of 87%. It also gave an activity at 1 µM (PIM1) of 100%, an activity at 1 µM (PKNB(M.tuberculosis)) of 77% and an activity at 1 µM (PRKCQ) of 88%. For the same compound, the activity at 1 µM [3] was 100%, the activity at 1 µM [4] was 100% and the activity at 1 µM (SNARK) was 100%. The activity at 1 µM (TSSK1B) was 100% and the activity at 1 µM (ULK2) was 94%.
